Results as given in patent publication US10196436B2, “Inhibitors of the fibroblast growth factor receptor” (BLUEPRINT MEDICINES CORPORATION, priority 2012, dated 2019).

Assays:
wild type FGFR-1 = wild type FGFR-1 (Homo sapiens (Human), UniProt P11362); experiment: FGFR-1 wild type assay at Km (Caliper electrophoretic mobility shift); assay type: biochemical; conditions: 400 uM ATP, 90 minutes, 25 C; read-out: FGFR1 IC50
Method: (§1) In order to assess the activity of chemical compounds against the relevant kinase of interest, the Caliper LifeSciences electrophoretic mobility shift technology platform is utilized. Fluorescently labeled substrate peptide is incubated in the presence dosed levels of compounds, a set concentration of kinase and of ATP, so that a reflective proportion of the peptide is phosphorylated. At the end of the reaction, the mix of phosphorylated (product) and non-phosphorylated (substrate) peptides are passed through the microfluidic system of the Caliper LabChip® EZ Reader II, under an applied potential difference. The presence of the phosphate group on the product peptide provides a difference in mass and charge between the product peptide and the substrate peptide, resulting in a separation of the substrate and product pools in the sample. As the pools pass the LEDS within the instrument, these pools are detected and resolved as separate peaks. The ratio between these peaks therefore reflects the activity of the chemical matter at that concentration in that well, under those conditions.
(§2) The reaction was stopped by the addition of 70 ul of Stop buffer (100 mM HEPES pH 7.5, 0.015% Brij 35, 35 mM EDTA and 0.2% of Coating Reagent 3 (Caliper Lifesciences)). The plate was then read on a Caliper EZReader 2 (protocol settings: −1.9 psi, upstream voltage −700, downstream voltage −3000, post sample sip 35 s).

wild type FGFR-4 = wild type FGFR-4 (Homo sapiens (Human), UniProt P22455); experiment: FGFR-4 wild type assay at Km (Caliper electrophoretic mobility shift); assay type: biochemical; conditions: for IC50: 400 uM ATP, 90 minutes, 25 C, read-out: FGFR4 IC50; for Ratio FGFR1/FGFR4: [IC50 for FGFR1]/[IC50 for FGFR4]
Method: as §1
as §2, with “LabChip® EZ Reader II” for “EZReader 2”

[1] = tested on: MDA-MB-453 cells, which harbor an activating FGFR4 mutation; experiment: Cellular potency: phosphorylation of Erk in MDA-MB-453 cells (immunoblot); conditions: Homo sapiens, MDA-MB-453, 1 h, read-out: Potency (pErk IC50)
Method: Dose response in MDA-MB-453 cells, which harbor an activating FGFR4 mutation, was measured as follows. Briefly, MDA-MB-453 cells were seeded at 2.5×10^6 cells/6 well, and starved overnight. Compounds were added at varying concentrations (3000, 1000, 300, 100, and 30 nM) for 1 hour. Samples were collected and lysed for immunoblot analysis. The phosphorylation of Erk was measured and the average pErk value of three replicates was plotted with three parameter dose-response (inhibition) curve fit using Prism GraphPad software, which was used to determine the IC50 values.

Chain of wild type FGFR-4 (P22455 22-802): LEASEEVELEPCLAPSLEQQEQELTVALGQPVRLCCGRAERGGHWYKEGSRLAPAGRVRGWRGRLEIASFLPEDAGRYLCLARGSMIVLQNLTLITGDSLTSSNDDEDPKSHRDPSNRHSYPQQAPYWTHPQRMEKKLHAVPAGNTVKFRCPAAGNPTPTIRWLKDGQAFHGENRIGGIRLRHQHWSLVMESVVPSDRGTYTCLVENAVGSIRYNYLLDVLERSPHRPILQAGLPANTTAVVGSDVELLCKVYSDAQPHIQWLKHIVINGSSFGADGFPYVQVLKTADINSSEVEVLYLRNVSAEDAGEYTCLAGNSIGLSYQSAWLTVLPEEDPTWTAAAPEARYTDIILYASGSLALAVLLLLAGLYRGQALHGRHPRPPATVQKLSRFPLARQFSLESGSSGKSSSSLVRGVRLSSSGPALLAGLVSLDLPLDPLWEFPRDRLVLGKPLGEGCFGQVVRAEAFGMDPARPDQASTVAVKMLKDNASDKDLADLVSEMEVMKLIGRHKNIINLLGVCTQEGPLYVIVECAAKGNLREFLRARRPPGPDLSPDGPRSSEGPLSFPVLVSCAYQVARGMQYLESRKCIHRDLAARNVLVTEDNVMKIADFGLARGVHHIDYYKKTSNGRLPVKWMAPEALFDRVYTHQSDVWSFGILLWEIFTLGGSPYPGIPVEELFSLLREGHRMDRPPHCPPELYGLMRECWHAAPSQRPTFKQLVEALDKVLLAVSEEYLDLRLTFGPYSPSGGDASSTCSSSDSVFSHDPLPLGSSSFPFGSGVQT
Chain of wild type FGFR-1 (P11362 22-822): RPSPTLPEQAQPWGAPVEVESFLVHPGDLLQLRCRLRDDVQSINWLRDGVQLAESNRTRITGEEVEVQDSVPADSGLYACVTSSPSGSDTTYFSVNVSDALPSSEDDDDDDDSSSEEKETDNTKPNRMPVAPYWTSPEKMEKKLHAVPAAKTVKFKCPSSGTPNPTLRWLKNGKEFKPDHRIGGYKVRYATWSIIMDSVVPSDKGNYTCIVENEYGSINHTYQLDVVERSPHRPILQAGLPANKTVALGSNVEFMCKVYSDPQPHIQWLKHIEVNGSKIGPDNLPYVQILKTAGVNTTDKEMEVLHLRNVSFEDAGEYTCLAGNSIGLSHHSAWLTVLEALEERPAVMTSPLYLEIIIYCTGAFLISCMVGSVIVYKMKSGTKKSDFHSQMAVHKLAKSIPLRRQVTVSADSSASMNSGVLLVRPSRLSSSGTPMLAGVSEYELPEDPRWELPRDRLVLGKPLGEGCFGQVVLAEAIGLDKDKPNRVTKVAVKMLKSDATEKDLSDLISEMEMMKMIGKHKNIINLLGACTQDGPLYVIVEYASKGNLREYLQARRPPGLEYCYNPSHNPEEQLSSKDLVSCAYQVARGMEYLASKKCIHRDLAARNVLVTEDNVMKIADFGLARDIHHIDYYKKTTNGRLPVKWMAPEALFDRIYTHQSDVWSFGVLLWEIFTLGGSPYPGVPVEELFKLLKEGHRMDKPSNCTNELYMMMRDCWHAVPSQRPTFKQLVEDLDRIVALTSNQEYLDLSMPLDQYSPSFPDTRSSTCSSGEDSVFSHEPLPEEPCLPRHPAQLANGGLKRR

Row | IC50 (wild type FGFR-1) | IC50 (wild type FGFR-4) | Ratio FGFR1/FGFR4 (wild type FGFR-4) | IC50 [1] | Structure (SMILES)
1 | > 1 µM | 0.1 to 1 µM | C (the ratio is ≥100 and <200) |  | C=CC(=O)N(C)c1ncc2cc(-c3cc(OC)cc(OC)c3)ccc2n1 [COMPOUND 1]
2 | > 1 µM |  | D (the ratio is ≥50 and <100) |  | C=CC(=O)N(C)c1ncc2cc(-c3c(Cl)cccc3Cl)ccc2n1 [COMPOUND 2]
3 | > 1 µM |  | A (the ratio is >500) |  | C=CC(=O)N(C)c1ncc2c(n1)N(C)C(=O)N(c1cc(OC)cc(OC)c1)C2 [COMPOUND 5]
4 | > 1 µM |  |  |  | C=CC(=O)Nc1cccc(C)c1Nc1ncc(C#Cc2cc(OC)cc(OC)c2)cn1 [COMPOUND 6, N-(2-((5-((3,5-dimethoxyphenyl)ethynyl)pyrimidin-2-yl)amino)-3-methylphenyl) acrylamide]
5 | > 1 µM | < 0.01 µM | A (the ratio is >500) |  | C=CC(=O)N(C)c1ncc2cc(-c3c(Cl)c(OC)cc(OC)c3Cl)ccc2n1 [COMPOUND 7]
6 |  | < 0.01 µM | E (the ratio is >10 and <50) |  | C=CC(=O)N(C)c1ncc2cc(-c3c(Cl)c(OC)cc(OC)c3Cl)cnc2n1 [COMPOUND 8]
7 | > 1 µM |  | D (the ratio is ≥50 and <100) |  | C=CC(=O)Nc1cccc(C)c1Nc1ncc2cc(-c3cc(C(N)=O)ccc3F)ccc2n1 [COMPOUND 9]
8 | > 1 µM | > 1 µM | E (the ratio is >10 and <50) |  | C=CC(=O)Nc1cccc(C)c1Nc1ncc2cc(-c3cc(OC)cc(OC)c3)cnc2n1 [COMPOUND 10, N-(2-((6-(3,5-dimethoxyphenyl)pyrido[2,3-d]pyrimidin-2-yl)amino)-3-methylphenyl)acrylamide]
9 | > 1 µM |  |  |  | C=CC(=O)Nc1ccccc1Nc1nccc(N2CCCC(NS(=O)(=O)CCC)C2)n1 (stereo not shown) [COMPOUND 11, N-(2-((4-(3-(propylsulfonamido)piperidin-1-yl)pyrimidin-2-yl)amino)phenyl)acrylamide]
10 |  | < 0.01 µM | D (the ratio is ≥50 and <100) |  | C=CC(=O)N(C)c1ncc2cc(-c3c(Cl)c(OC)cc(OC)c3Cl)c(=O)n(C)c2n1 [COMPOUND 12]
11 | > 1 µM |  | D (the ratio is ≥50 and <100) |  | C=CC(=O)Nc1cccc(C)c1Nc1ncc2cc(-c3c(Cl)cccc3Cl)ccc2n1 [COMPOUND 13]
12 | > 1 µM |  | B (the ratio is ≥200 and <500) |  | C=CC(=O)Nc1ccccc1Nc1cc2c(cn1)cc(-c1cc(OC)cc(OC)c1)c(=O)n2C [COMPOUND 15]
13 | > 1 µM |  |  |  | C=CC(=O)Nc1ccccc1Nc1ncc2cc(-c3cc(OC)cc(OC)c3)c(=O)n(C)c2n1 [COMPOUND 16]
14 | > 1 µM |  | E (the ratio is >10 and <50) |  | C=CC(=O)Nc1cccc(C)c1Nc1ncc2cc(-c3c(Cl)ccc(OC)c3F)ccc2n1 [COMPOUND 17A]
15 | > 1 µM |  | B (the ratio is ≥200 and <500) |  | C=CC(=O)Nc1cccc(Cl)c1Nc1ncc2cc(-c3cc(C(N)=O)ccc3C)ccc2n1 [COMPOUND 17]
16 | > 1 µM |  |  |  | C=CC(=O)Nc1cccc(C)c1Nc1ncc2cc(-c3cc(OC)cc(OC)c3)c(=O)n(C)c2n1 [COMPOUND 19]
17 | > 1 µM |  |  |  | C=CC(=O)Nc1ccccc1-c1ccn2c(-c3cccc(NC(=O)NCC(F)(F)F)c3)cnc2c1 [COMPOUND 21, N-(2-(3-(3-(3-(2,2,2-trifluoroethyl)ureido)phenyl)imidazo[1,2-a]pyridin-7-yl)phenyl)acrylamide]

Row | IC50 (wild type FGFR-1) | IC50 (wild type FGFR-4) | Ratio FGFR1/FGFR4 (wild type FGFR-4) | IC50 [1] | Structure (SMILES)
18 | > 1 µM |  | B (the ratio is ≥200 and <500) |  | C=CC(=O)Nc1cccc(C)c1Nc1ncc2cc(-c3c(Cl)cccc3Cl)c(=O)n(C)c2n1 [COMPOUND 22]
19 | > 1 µM | 0.1 to 1 µM | A (the ratio is >500) |  | C=CC(=O)Nc1ccccc1Nc1ncc(C)c(N2CCN(C(=O)Nc3ccc(C#N)cc3)CC2)n1 [COMPOUND 23]
20 | > 1 µM |  |  |  | C=CC(=O)Nc1cccc(C)c1Nc1ncc(C#Cc2c(Cl)c(OC)cc(OC)c2Cl)cn1 [COMPOUND 24, N-(2-((5-((2,6-dichloro-3,5-dimethoxyphenyl)ethynyl)pyrimidin-2-yl)amino)-3-methylphenyl)acrylamide]
21 | > 1 µM |  | D (the ratio is ≥50 and <100) |  | C=CC(=O)Nc1cccc(C)c1Oc1ncc2cc(-c3c(Cl)c(OC)cc(OC)c3Cl)ccc2n1 [COMPOUND 25A]
22 | > 1 µM |  |  |  | C=CC(=O)Nc1cc(C)cc(C)c1Nc1ncc2cc(-c3c(Cl)c(OC)cc(OC)c3Cl)ccc2n1 [COMPOUND 28]
23 | > 1 µM | < 0.01 µM | C (the ratio is ≥100 and <200) |  | C=CC(=O)Nc1cc(F)cc(C)c1Nc1ncc2cc(-c3c(Cl)c(OC)cc(OC)c3Cl)ccc2n1 [COMPOUND 32]
24 | > 1 µM |  | B (the ratio is ≥200 and <500) |  | C=CC(=O)Nc1cc(F)cc(F)c1Nc1ncc2cc(-c3c(Cl)c(OC)cc(OC)c3Cl)ccc2n1 [COMPOUND 36]
25 |  | < 0.01 µM | C (the ratio is ≥100 and <200) |  | C=CC(=O)Nc1ccc(F)c(F)c1Nc1ncc2cc(-c3c(Cl)c(OC)cc(OC)c3Cl)ccc2n1 [COMPOUND 37]
26 |  |  |  | < 0.001 µM | C=CC(=O)Nc1cccc(C)c1Nc1ncc2cc(-c3c(Cl)c(OC)cc(OC)c3Cl)c(=O)n(C)c2n1 [COMPOUND 43, N-(2-((6-(2,6-dichloro-3,5-dimethoxyphenyl)-8-methyl-7-oxo-7,8-dihydropyrido[2,3-d]pyrimidin-2-yl)amino)-3-methylphenyl)acrylamide]
27 | > 1 µM |  | E (the ratio is >10 and <50) |  | C=CC(=O)Nc1ccccc1Nc1cc2nc(NC(=O)NC(C)(C)C)c(-c3cc(OC)cc(OC)c3)cc2cn1 [COMPOUND 44]
28 |  | < 0.01 µM | B (the ratio is ≥200 and <500) |  | C=CC(=O)Nc1cccc(F)c1Nc1ncc2cc(-c3c(Cl)c(OC)cc(OC)c3Cl)cc(OC)c2n1 [COMPOUND 47]
29 |  | < 0.01 µM | E (the ratio is >10 and <50) |  | C=CC(=O)Nc1cccc(C)c1Nc1ncc2c(n1)N(C)C(=O)N(c1c(Cl)c(OC)cc(OC)c1Cl)C2 [COMPOUND 48, N-(2-((6-(2,6-dichloro-3,5-dimethoxyphenyl)-8-methyl-7-oxo-5,6,7,8-tetrahydropyrimido[4,5-d]pyrimidin-2-yl)amino)-3-methylphenyl)acrylamide]
30 |  |  | E (the ratio is >10 and <50) |  | C=CS(=O)(=O)Nc1cccc(C)c1Nc1ncc2cc(-c3c(Cl)c(OC)cc(OC)c3Cl)ccc2n1 [COMPOUND 49A]
31 | > 1 µM |  | A (the ratio is >500) |  | C=CC(=O)Nc1cc(Cl)cc(C)c1Nc1ncc2cc(-c3c(Cl)c(OC)cc(OC)c3Cl)ccc2n1 [COMPOUND 49]
32 | > 1 µM |  |  |  | C=CC(=O)Nc1ccccc1Nc1ncc(Cl)c(N2CCN(C(=O)Nc3cccc(C(F)(F)F)c3)CC2)n1 [COMPOUND 50, 4-(2-((2-acrylamidophenyl)amino)-5-chloropyrimidin-4-yl)-N-(3-(trifluoromethyl)phenyl)piperazine-1-carboxamide]
33 | > 1 µM |  |  |  | C=CC(=O)Nc1cc(C(=O)NC2CCN(C)CC2)ccc1Nc1ncc(C)c(N2CCN(C(=O)Nc3ccc(C#N)cc3)CC2)n1 [COMPOUND 54, 4-(2-((2-acrylamido-4-((1-methylpiperidin-4-yl)carbamoyl)phenyl)amino)-5-methylpyrimidin-4-yl)-N-(4-cyanophenyl)piperazine-1-carboxamide]

Row | Structure (SMILES) | IC50 (wild type FGFR-1) | IC50 (wild type FGFR-4) | Ratio FGFR1/FGFR4 (wild type FGFR-4) | IC50 [1]
34 | C=CC(=O)N(C)c1ncc2c(n1)N(C)C(=O)N(c1c(Cl)c(OC)cc(OC)c1Cl)C2 [COMPOUND 14] |  |  | F (the ratio of [IC50 for FGFR1]/[IC50 for FGFR4] is less than 10) | 
35 | C=CC(=O)Nc1ccccc1Nc1ncc2cc(-c3c(Cl)c(OC)cc(OC)c3Cl)c(=O)n(C)c2c1C [COMPOUND 40, N-(2-((3-(2,6-dichloro-3,5-dimethoxyphenyl)-1,8-dimethyl-2-oxo-1,2-dihydro-1,6-naphthyridin-7-yl)amino)phenyl)acrylamide] | > 1 µM |  |  | 
36 | C=CC(=O)Nc1cccc(C)c1Nc1ncc2cc(-c3c(Cl)c(OC)cc(OC)c3Cl)c(OC)cc2n1 [COMPOUND 42, N-(2-((6-(2,6-dichloro-3,5-dimethoxyphenyl)-7-methoxyquinazolin-2-yl)amino)-3-methylphenyl)acrylamide] |  | < 0.01 µM | F (the ratio of [IC50 for FGFR1]/[IC50 for FGFR4] is less than 10) | 
37 | C=CC(=O)Nc1cccc(F)c1Nc1ncc2cc(-c3c(Cl)c(OC)cc(OC)c3Cl)ccc2n1 [COMPOUND 51] | > 1 µM | 0.01 to 0.1 µM | F (the ratio of [IC50 for FGFR1]/[IC50 for FGFR4] is less than 10) | 
